Experimental data taken from patent US20150269307A1, “TARGET INHIBITION MAP SYSTEM FOR COMBINATION THERAPY DESIGN AND METHODS OF USING SAME” (Texas Tech University System, priority 2014, published 2015).

Legend:
U23674 cells = experiment: Four-arm orthotropic allograft study, survival; assay type: in vivo, mouse; conditions: 50 mg/kg OSI-906, 150 mg/kg GDC-0941, oral gavage; compared to vehicle and other arms
Description: This engraftment was performed after damaging the right leg via cardiotoxin as previously described. Treatment commenced two days after engraftment. Dosing schedule was once daily by oral gavage up to day 5, at which time dosing was performed every other day. The endpoint for the study and survival analysis was tumor volume=1.4 cc.

IGF-1R = molecular target: T1, IGF-1R (Mus musculus, UniProt Q60751); experiment: Western blot analysis of phospho-IGF-1R after IGF-1 stimulation; assay type: cell-based; conditions: 4 hours of drug exposure at 1 μM and higher
T1 construct: endogenous in cells; host or cells: murine DIPG neurospheres (Ntv-a p53 deficient, PDGF-B driven)
Description: (§1) IGF-1R ligand was added at 10 nmol/L concentration for 15 minutes prior to cell collection. […] Protein concentrations of total cell lysates or total tissue lysates were determined using BCA assay kit (Pierce). Lysates were resolved by SDS-PAGE (Invitrogen) and transferred to nitrocellulose membranes (Bio-Rad Laboratories). […] All antibodies were purchased from Cell Signaling except Actin, which was purchased from Santa Cruz Biotech. Membranes were incubated with the appropriate labeled secondary antibodies, and protein was visualized and quantified using Li-Cor Biosciences Odyssey Infrared Imaging system (Li-Cor Biosciences). Inhibition was calculated by comparing the ratio of phosphorylation signals in untreated versus treated samples after normalization to actin. All values are given as mean+/−SD of at least 3 independent experiments.

DIPG neurospheres [1] = experiment: BrdU based cell proliferation ELISA assay; parameters: species or system mouse
Description: (§2) A bromodeoxyuridine (BrdU) based cell proliferation ELISA assay kit (Roche) was used for proliferation and processed according to the manufacturer's protocol. […] Viability was measured with CellTiter-Glo Luminescent Cell Viability Assay (# G7572, Promega) per manufacturer's protocol, luminescence values were obtained using Turner Biosystems Modulus Microplate luminometer (model 9300-062). All values are given as mean+/−SD of at least 3 independent experiments.

DIPG neurospheres [2] = experiment: cells; conditions: for viability at 10 µM: read-out: cell viability (cytocidal)
Description: Primary cultures of DIPG neurospheres were added to 384 well plates pre-plated with 60 known drugs in an increasing gradient of concentrations. […] To complete this drug screen, primary cultures of nestin […] 53 deficient DIPG neurospheres were added to plates with 60 known drug samples in an increasing gradient of concentrations.

AKT = experiment: Western blot analysis of phospho-Akt after IGF-1 stimulation; assay type: cell-based, mouse; conditions: 4 hours of drug exposure at 1 μM and higher
Description: as §1

DIPG neurospheres [3] = experiment: Cellular viability assay (CellTiter-Glo Luminescent Cell Viability Assay); assay type: cell-based, mouse; conditions: 48 hours
Description: as §2

[4] = tested on: human patient-derived xenografts; experiment: Xenograft-derived chemical screen (Supplemental Table 3); assay type: cell-based
Description: Three chemical screens were applied to the U23674 primary tumor cell culture. […] The target inhibition profile is a quantified description of the inhibitory properties of the compound on the numerous protein targets preset on the PPTI screen.
To screen the chemical agents, cell cultures were plated in 384 well plates at a seeding density of 2000 cells per well over graded concentrations of the numerous compounds. The chemical concentrations were between 10 nM and […] depending on the activity range of the compounds. The cells were incubated in DMEM supplemented with 1% penicillin streptomycin, and 10% fetal bovine serum for 72 hours. Chemical sensitivity was determined by an MTS cell viability assay after the 72 hour incubation period. The sensitivity responses at the different concentrations were used to determine the chemical IC50 using a hill curve fitting algorithm with variable hill slope coefficients.

DIPG-bearing mice = assay type: in vivo
Description: All experiments were performed under the Institutional Animal Care and Use Committee and Institutional Review Board of Duke University approved protocol (A239-10-9 and A214-13-8). Mice were maintained under barrier conditions. Nestin tv-a (Ntv-a) p53^fl/fl mice were injected with DF1 cells expressing RCAS-PDGF-B+RCAS-Cre as described above. Three weeks post injection; […]. Mice were treated with 25 mg/kg BID for 6 doses. Loss of 25% of body weight, lethargy, head tilt, or seizure development was used as euthanasia criteria during the treatment window. Four hours after completion of the 6th dose, treated animals were euthanized and tumor tissue was extracted as described above.
Tumor samples embedded in paraffin were then sectioned on a Leica RM2235 microtome at […] thickness. Immunohistochemistry was performed using Discovery XT (Ventana Medical Systems). Sections were immunostained for cleaved caspase 3 (Asp175) (Cell Signaling #9661) and anti-phospho-histone H3 (Ser10) (Millipore 06-570) to allow for evaluation of apoptosis and proliferation, respectively.
Image analysis was completed using MetaMorph 6.1 software (Universal Imaging Corp.; Downingtown, Pa.) to quantify immunostaining on previously imaged sections for each injected animal. These images were thresholded using the HSI color representation method in the Set Color Threshold window. This method has previously been validated by Maximova et. al.. This is a multidimensional evaluation of the hue, saturation, and intensity of each individual pixel making up an image with a range from 0-255. Once color thresholds had been established that were able to define all nucleated cells and only positively labeled cells, each of the ten images per injected animal were quantified for (per 40× high powered field): total nucleated cell area, total nucleated cell count, total positive cell area, total positive cell count. […] The averages for each animal of each of these parameters were then transferred to GraphPad Prism 5 software (GraphPad Software, San Diego, Calif.) where a Mann-Whitney-U t-test was performed on each analyzed parameter to determine statistical significance.

[5] = 48 h, read-out: In Vitro Absolute IC50

T1 sequence (Q60751 31-1373): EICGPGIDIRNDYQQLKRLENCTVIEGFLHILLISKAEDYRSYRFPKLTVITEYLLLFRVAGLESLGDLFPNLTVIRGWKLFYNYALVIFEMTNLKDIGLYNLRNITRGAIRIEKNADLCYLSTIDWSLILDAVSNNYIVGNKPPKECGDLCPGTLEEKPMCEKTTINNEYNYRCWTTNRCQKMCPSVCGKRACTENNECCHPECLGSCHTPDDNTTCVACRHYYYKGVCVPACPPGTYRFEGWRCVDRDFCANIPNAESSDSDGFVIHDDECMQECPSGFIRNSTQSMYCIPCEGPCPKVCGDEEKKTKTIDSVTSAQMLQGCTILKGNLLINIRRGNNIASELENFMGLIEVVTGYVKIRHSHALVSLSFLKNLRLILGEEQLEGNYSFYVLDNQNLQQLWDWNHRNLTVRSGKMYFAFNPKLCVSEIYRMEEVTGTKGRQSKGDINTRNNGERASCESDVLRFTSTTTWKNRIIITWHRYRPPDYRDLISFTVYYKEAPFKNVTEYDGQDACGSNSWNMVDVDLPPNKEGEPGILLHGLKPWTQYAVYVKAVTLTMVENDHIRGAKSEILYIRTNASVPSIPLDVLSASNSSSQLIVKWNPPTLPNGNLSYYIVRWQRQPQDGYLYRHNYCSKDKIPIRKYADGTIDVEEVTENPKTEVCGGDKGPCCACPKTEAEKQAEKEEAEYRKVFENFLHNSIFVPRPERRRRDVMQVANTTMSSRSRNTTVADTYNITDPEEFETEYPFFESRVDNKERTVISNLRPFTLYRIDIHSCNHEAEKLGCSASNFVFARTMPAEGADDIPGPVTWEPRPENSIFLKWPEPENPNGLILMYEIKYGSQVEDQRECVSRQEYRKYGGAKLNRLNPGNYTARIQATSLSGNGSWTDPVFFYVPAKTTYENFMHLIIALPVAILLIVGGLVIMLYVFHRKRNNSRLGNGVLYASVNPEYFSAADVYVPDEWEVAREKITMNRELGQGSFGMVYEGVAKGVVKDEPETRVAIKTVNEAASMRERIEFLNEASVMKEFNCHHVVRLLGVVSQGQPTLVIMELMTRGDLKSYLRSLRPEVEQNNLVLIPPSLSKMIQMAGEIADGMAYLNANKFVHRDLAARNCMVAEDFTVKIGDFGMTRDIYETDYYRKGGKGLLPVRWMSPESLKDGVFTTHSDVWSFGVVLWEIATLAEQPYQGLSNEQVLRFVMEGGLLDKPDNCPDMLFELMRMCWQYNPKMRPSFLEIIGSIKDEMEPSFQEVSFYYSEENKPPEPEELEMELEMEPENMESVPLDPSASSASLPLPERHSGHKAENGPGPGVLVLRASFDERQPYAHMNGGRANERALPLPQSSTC

| Structure (SMILES) | survival of mice (endpoint tumor volume 1.4 cc) (U23674 cells) | reduction in pIGF-1R (IGF-1R) | concentration giving significant inhibition of proliferation (DIPG neurospheres [1]) | IC50 (DIPG neurospheres [1]; Mus musculus, 48 hours, BrdU assay) | IC50 (DIPG neurospheres [2]; [5]) | viability at 10 µM (DIPG neurospheres [2]) | reduction in pAKT expression (AKT) | concentration giving significant reduction of viability (DIPG neurospheres [3]) | IC50 (DIPG neurospheres [3]; Mus musculus, CellTiter-Glo, read-out: IC50, viability / cytotoxic effects) | IC50 Value ([4]; 60 agent PPTI screen) | apoptosis, cleaved caspase 3 positive cells (DIPG-bearing mice; 25 mg/kg BID for 6 doses, intraperitoneal, mean, p=0.0435 vs vehicle) | DIPG proliferation, phosphorylated histone-3 (serine 10) positive cells (DIPG-bearing mice; 25 mg/kg BID for 6 doses, intraperitoneal, mean, p=0.8421 vs vehicle) | blood brain barrier crossing (DIPG-bearing mice; mouse, in vivo) | tolerability in mice undergoing treatment (DIPG-bearing mice; mouse, in vivo) | IC50 (DIPG neurospheres [2]; Mus musculus, read-out: in vitro IC50 in the high throughput drug screen) | IC50 ([4]; Homo sapiens, read-out: IC50 Value) |
| --- | --- | --- | --- | --- | --- | --- | --- | --- | --- | --- | --- | --- | --- | --- | --- | --- |
| CS(=O)(=O)N1CCN(Cc2cc3nc(-c4cccc5[nH]ncc45)nc(N4CCOCC4)c3s2)CC1 [GDC-0941] | no better than survival of mice only treated with vehicle |  |  |  |  |  |  |  |  |  |  |  |  |  |  |  |
| C[C@]1(O)C[C@@H](c2nc(-c3ccc4ccc(-c5ccccc5)nc4c3)c3c(N)nccn32)C1 [OSI-906] | no better than survival of mice only treated with vehicle | 73% | ≥ 1 µM | 2500 nM | 1740 nM | < 15% | 69% | ≥ 1 µM | 2400 nM | >conc tested |  |  |  |  |  |  |
| C[C@@]1(C(=O)Nc2ccc(F)nc2)CCCN1c1nc(Nc2cc(C3CC3)n[nH]2)c2cccn2n1 [BMS-754807] |  |  |  |  | 97.4 nM | < 15% |  | ≥ 0.1 µM |  |  | 1.063+/−0.1925 percentage of cell per high powered filed | 9.632+/−2.827 percentage of cell per high powered filed | able to cross the blood brain barrier | well tolerated | 90 nM | 1730 nM |
